# Experimental data taken from US20020164346A1, “Altered peptide ligands” (priority 2001, published 2002).
# System: normal donor HLA-A2+ T cells
# Assay: In vitro T cell education with peptide-pulsed autologous dendritic cells; lysis of 51Cr-labeled peptide-pulsed T2 cells
# Format: cell-based, human
# Excerpt: Normal donor aphoresis products were obtained from Dana-Farber Cancer Research Institute (Boston, Mass.). PBMC were isolated by centrifugation over Ficoll (Nycomed, Oslo, Norway). CD8^+ T cells were isolated using magnetic beads (Dynal, Oslo, Norway) according to the manufacturers instructions. To generate autologous dendritic cells, monocytes were isolated from the PBMC and treated with GM-CSF (Immunex, Seattle, Wash.) and IL-4 (PeproTech, London, England) for 6 days as previously described. One day prior to establishing the T cell/DC cocultures, the DCs were pulsed with peptides (10 μg/ml) overnight followed by the addition of the previously isolated CD8+ T cells at a T:DC of 10:1. Cultures were restimulated with peptide-pulsed DCs. IL-2 (50 IU/ml) was introduced on day 8 and added every 3-4 days as needed. The bulk cultures were assayed one week after the fifth restimulation. Peptide-pulsed T2 cell targets were prepared as described above and adenovirus-infected target cells were allowed to incubate with the viruses for 48 hours at the indicated MOI prior to being used in the CTL assay. […]
# Altered peptides give rise to T cells that recognize the native epitope. […] All data points represent the average of 4 replicates and background lysis, as determined using T2 cells pulsed with equivalent amounts of DMSO containing no peptide, was subtracted out.
substance,measurement,setting,value
native gp100 peptide ligand: native (wild-type) gp100209-217 peptide epitope of the human melanoma antigen gp100,ability of peptide-educated T cells to lyse targets displaying the native antigen/ligand,T cells from normal (healthy) donors educated with the peptide,generally inefficient
same,eliciting reactive T cells (lysis of T2 cells pulsed with native peptide),"after 5 weekly stimulations, bulk T cell cultures, FIG. 3",relatively poor
